Reference: the supplement of paper PMC10307832

Assays:
Test in all cases: relative viability (nuclei count vs DMSO), 5 days (fraction); higher = more cells survive
LCLC-97TM1 = test system: LCLC-97TM1
Method in brief: (§1)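 Lung cancer cell lines, seeded in 1536-well plates, were treated the following day by pin tool with a single drug or with five library-drug doses (not always all listed) in √10 steps on top of a fixed anchor-drug dose. Cells were fixed and nuclei stained in one step after 5 days, and nuclei were counted. Relative viability is the nuclei count for treated wells divided by that for vehicle wells, reported as medians of duplicate plates.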

RERF-LC-KJ = test system: RERF-LC-KJ
Method in brief: as §1

PC-14 = test system: PC-14
Method in brief: as §1

NCI-H1650 = test system: NCI-H1650
Method in brief: as §1

HCC-15 = test system: HCC-15
Method in brief: as §1

NCI-H322M = test system: NCI-H322M
Method in brief: as §1

NCI-H1355 = test system: NCI-H1355
Method in brief: as §1

NCI-H2405 = test system: NCI-H2405
Method in brief: as §1

LK-2 = test system: LK-2
Method in brief: as §1

NCI-H2228 = test system: NCI-H2228
Method in brief: as §1

CAL-12T = test system: CAL-12T
Method in brief: as §1

HCC-827 = test system: HCC-827
Method in brief: as §1

NCI-H1755 = test system: NCI-H1755
Method in brief: as §1

NCI-H1734 = test system: NCI-H1734
Method in brief: as §1

EKVX = test system: EKVX
Method in brief: as §1

NCI-H520 = test system: NCI-H520
Method in brief: as §1

PC-3 [JPC-3] = test system: PC-3 [JPC-3]
Method in brief: as §1

H3255 = test system: H3255
Method in brief: as §1

NCI-H1975 = test system: NCI-H1975
Method in brief: as §1

`CCN(CC)CCCCNc1ncc2cc(-c3cc(OC)cc(OC)c3)c(NC(=O)NC(C)(C)C)nc2n1` + CC1(C)CCC(c2ccc(Cl)cc2)=C(CN2CCN(c3ccc(C(=O)NS(=O)(=O)c4ccc(N[C@H](CCN5CCOCC5)CSc5ccccc5)c(S(=O)(=O)C(F)(F)F)c4)cc3)CC2)C1 [Navitoclax] (partner 0.5 µM) showed a relative viability (LCLC-97TM1; first compound 0.03162 µM) of 0.356, a relative viability (LCLC-97TM1; first compound 0.1 µM) of 0.503 and a relative viability (LCLC-97TM1; first compound 0.3162 µM) of 0.435. The relative viability (LCLC-97TM1; first compound 1 µM) was 0.4, the relative viability (RERF-LC-KJ; first compound 0.01 µM) was 0.996 and the relative viability (RERF-LC-KJ; first compound 0.03162 µM) was 0.851. For the same molecule, the relative viability (RERF-LC-KJ; first compound 0.1 µM) was 0.925, the relative viability (RERF-LC-KJ; first compound 0.3162 µM) was 1.09 and the relative viability (RERF-LC-KJ; first compound 1 µM) was 0.997. It also gave a relative viability (PC-14; first compound 0.01 µM) of 1.11, a relative viability (PC-14; first compound 0.03162 µM) of 1.06 and a relative viability (PC-14; first compound 0.1 µM) of 1.15. It also gave a relative viability (PC-14; first compound 0.3162 µM) of 1.01, a relative viability (PC-14; first compound 1 µM) of 0.985 and a relative viability (NCI-H1650; first compound 0.01 µM) of 1.12. It also gave a relative viability (NCI-H1650; first compound 0.03162 µM) of 1.03, a relative viability (NCI-H1650; first compound 0.1 µM) of 1.17 and a relative viability (NCI-H1650; first compound 0.3162 µM) of 0.784. For the same molecule, the relative viability (NCI-H1650; first compound 1 µM) was 0.7, the relative viability (HCC-15; first compound 0.01 µM) was 0.748 and the relative viability (HCC-15; first compound 0.03162 µM) was 0.724. The relative viability (HCC-15; first compound 0.1 µM) was 0.859, the relative viability (HCC-15; first compound 0.3162 µM) was 0.784 and the relative viability (HCC-15; first compound 1 µM) was 0.7. The relative viability (NCI-H322M; first compound 0.01 µM) was 1.26, the relative viability (NCI-H322M; first compound 0.03162 µM) was 1.29 and the relative viability (NCI-H322M; first compound 0.1 µM) was 1.23. For the same molecule, the relative viability (NCI-H322M; first compound 0.3162 µM) was 1.22, the relative viability (NCI-H322M; first compound 1 µM) was 1.2 and the relative viability (NCI-H1355; first compound 0.01 µM) was 0.906. The relative viability (NCI-H1355; first compound 0.03162 µM) was 1.09, the relative viability (NCI-H1355; first compound 0.1 µM) was 0.991 and the relative viability (NCI-H1355; first compound 0.3162 µM) was 1.02. For the same molecule, the relative viability (NCI-H1355; first compound 1 µM) was 0.938, the relative viability (NCI-H2405; first compound 0.01 µM) was 0.707 and the relative viability (NCI-H2405; first compound 0.03162 µM) was 0.772. For the same molecule, the relative viability (NCI-H2405; first compound 0.1 µM) was 0.853, the relative viability (NCI-H2405; first compound 0.3162 µM) was 0.901 and the relative viability (NCI-H2405; first compound 1 µM) was 0.789. For the same molecule, the relative viability (LK-2; first compound 0.01 µM) was 0.918, the relative viability (LK-2; first compound 0.03162 µM) was 0.841 and the relative viability (LK-2; first compound 0.1 µM) was 0.8. For the same molecule, the relative viability (LK-2; first compound 0.3162 µM) was 0.732, the relative viability (LK-2; first compound 1 µM) was 0.36 and the relative viability (NCI-H2228; first compound 0.01 µM) was 0.841. The relative viability (NCI-H2228; first compound 0.03162 µM) was 0.866, the relative viability (NCI-H2228; first compound 0.1 µM) was 0.979 and the relative viability (NCI-H2228; first compound 0.3162 µM) was 0.884. It also gave a relative viability (NCI-H2228; first compound 1 µM) of 0.541, a relative viability (CAL-12T; first compound 0.01 µM) of 1.43 and a relative viability (CAL-12T; first compound 0.03162 µM) of 1.12. For the same molecule, the relative viability (CAL-12T; first compound 0.1 µM) was 1.22, the relative viability (CAL-12T; first compound 0.3162 µM) was 1.42 and the relative viability (CAL-12T; first compound 1 µM) was 1.19. The relative viability (HCC-827; first compound 0.01 µM) was 1.06, the relative viability (HCC-827; first compound 0.03162 µM) was 0.981 and the relative viability (HCC-827; first compound 0.1 µM) was 1.05. For the same molecule, the relative viability (HCC-827; first compound 0.3162 µM) was 0.993, the relative viability (HCC-827; first compound 1 µM) was 1.02 and the relative viability (NCI-H1755; first compound 0.01 µM) was 1.14. For the same molecule, the relative viability (NCI-H1755; first compound 0.03162 µM) was 1.08, the relative viability (NCI-H1755; first compound 0.1 µM) was 1.07 and the relative viability (NCI-H1755; first compound 0.3162 µM) was 1.09. For the same molecule, the relative viability (NCI-H1755; first compound 1 µM) was 0.987, the relative viability (NCI-H1734; first compound 0.01 µM) was 0.971 and the relative viability (NCI-H1734; first compound 0.03162 µM) was 0.863. The relative viability (NCI-H1734; first compound 0.1 µM) was 0.824, the relative viability (NCI-H1734; first compound 0.3162 µM) was 1.03 and the relative viability (NCI-H1734; first compound 1 µM) was 0.761. For the same molecule, the relative viability (EKVX; first compound 0.01 µM) was 0.946, the relative viability (EKVX; first compound 0.03162 µM) was 0.851 and the relative viability (EKVX; first compound 0.1 µM) was 1.01. The relative viability (EKVX; first compound 0.3162 µM) was 1.04, the relative viability (EKVX; first compound 1 µM) was 0.968 and the relative viability (NCI-H520; first compound 0.01 µM) was 1.08. The relative viability (NCI-H520; first compound 0.03162 µM) was 1.08, the relative viability (NCI-H520; first compound 0.1 µM) was 1.31 and the relative viability (NCI-H520; first compound 0.3162 µM) was 1.09. The relative viability (NCI-H520; first compound 1 µM) was 0.419, the relative viability (PC-3 [JPC-3]; first compound 0.01 µM) was 0.827 and the relative viability (PC-3 [JPC-3]; first compound 0.03162 µM) was 0.785. The relative viability (PC-3 [JPC-3]; first compound 0.1 µM) was 0.855, the relative viability (PC-3 [JPC-3]; first compound 0.3162 µM) was 0.951 and the relative viability (PC-3 [JPC-3]; first compound 1 µM) was 1.02. The relative viability (H3255; first compound 0.01 µM) was 0.496, the relative viability (H3255; first compound 0.03162 µM) was 0.413 and the relative viability (H3255; first compound 0.1 µM) was 0.65. For the same molecule, the relative viability (H3255; first compound 0.3162 µM) was 0.729, the relative viability (H3255; first compound 1 µM) was 0.502 and the relative viability (NCI-H1975; first compound 0.01 µM) was 1.14. For the same molecule, the relative viability (NCI-H1975; first compound 0.03162 µM) was 1.13, the relative viability (NCI-H1975; first compound 0.1 µM) was 1.14 and the relative viability (NCI-H1975; first compound 0.3162 µM) was 1.23. For the same molecule, the relative viability (NCI-H1975; first compound 1 µM) was 0.87.
